Assay results as given in patent publication US9999596B2 (priority 2004, dated 2018).
Read-outs that look alike come from different tables or passages of the source.

Key:
[1] = test system: human umbilical venular endothelial cells; details: cited from earlier work
[2] = test system: A2780 (sensitive) human ovarian carcinoma cells; assay: cells; type: cell-based; details: A2780, 48 h, read-out: IC50 (nM) A2780
[3] = test system: A2780/AD (multidrug resistant) human ovarian carcinoma cells; assay: cells; type: cell-based; details: A2780AD, 48 h, read-out: IC50 (nM) A2780/AD
[4] = female, Fischer 344, rat, in vivo
in vivo = details: female, Fischer 344, rat
Mat B-III tumors = assay: Pharmacodynamic tumor-growth delay study
Source text: Mat B-III cells were obtained from American Type Culture Collection (Rockville, Md.). The cells were maintained in culture in vitro in RMPI medium supplemented with 10% fetal bovine serum, 100 units/ml penicillin-streptomycin sulfate, 2% sodium bicarbonate and 1% non-essential amino acids.
Female Fischer 344 rats (160-180 g) were purchased from Hilltop Laboratories (Scottdale, Pa.) and allowed to acclimate for one week. The rats were housed, two per cage and tagged to facilitate identification. Mat B-III cells grown in serum-containing medium were washed with phosphate buffer and trypsinized for 5 minutes. The cells were collected and centrifuged for 5 minutes. The cell pellet was resuspended in Dulbecco's phosphate buffer (DPBS) and centrifuged as above. This process was repeated three times. Finally the cell pellet (2×10^6 cells/ml) was resuspended and the cells were injected (0.5 ml=1×10^6 cells) subcutaneously into the back of the rats. The rats were weighed daily and examined for tumor development and distress. The tumor size was measured in two dimensions using calipers and the tumor mass was calculated as described in Equation 4.5.
Once the tumors reached a size of approximately 1 cm^3, (500-1000 mg) the rats were randomized into five experimental groups. […] All treatments were administered s.c. in the vicinity of the tumor. The rats were monitored daily for weight loss, tumor growth, skin lesions, distress or ascites. Body weight loss and lethal toxicity were taken into account when evaluating the toxic effects induced by the drug treatment. […]
Therefore, to adequately compare the various treatments, the rats were divided into two groups of 16 rats each based on the size of the tumors on day 10 following inoculation (small tumor group: size ˜500 mg and large tumor group: size ˜1000 mg). […] The dimensions of the tumors were measured prior to and post administration of the treatments in the case of the hydrogel groups to account for the volume of hydrogel.

Structure (SMILES): CC[C@@]1(O)C(=O)OCc2c1cc1n(c2=O)Cc2cc3ccccc3nc2-1 [CPT, Camptothecin]
- growth of human umbilical venular endothelial cells in vitro [1]: inhibited the growth

Structure (SMILES): CC[C@@]1(O)C(=O)OCc2c1cc1n(c2=O)Cc2cc3c(CN(C)C)c(O)ccc3nc2-1 [TPT, 9-amino-dimethyl-10-hydroxycamptothecin]
- IC50 [2]: 25.3 ± 1.4 nM
- IC50 [3]: 55.9 ± 2.67 nM
- MAT (mean absorption time) ([4]; 10 mg/kg): 10.44 h
- Alpha ([4]; iv, 10 mg/kg): 0.84 h⁻¹
- Cl ([4]; iv, 10 mg/kg): 444.59 mL/h
- MRT ([4]; iv, 10 mg/kg): 3.92 h
- Vz/F ([4]; iv, 10 mg/kg): 3552.68 mL
- kel ([4]; iv, 10 mg/kg): 0.14 h⁻¹
- dose fraction (F) that appeared in the systemic circulation ([4]; sc): 92%
- Vz ([4]; sc, 10 mg/kg): 5483.75 mL
- kel ([4]; sc, 10 mg/kg): 0.10 h⁻¹
- tmax ([4]; sc, 10 mg/kg): 1.56 h
- growth of human umbilical venular endothelial cells in vitro [1]: inhibited the growth
- AUC(0-inf) (in vivo; iv, 10 mg/kg): 5910 ng·h/mL
- AUC(0-t) (in vivo; iv, 10 mg/kg): 5790 ng·h/mL
- bioavailability (in vivo; iv, 10 mg/kg): 100%
- AUC (in vivo; iv, 10 mg/kg): 5960 ng·h/mL
- half-life (in vivo; iv, 10 mg/kg, Alpha-t1/2): 0.84 ± 0.07 h
- clearance (in vivo; iv, 10 mg/kg, Cl): 7.55 mL/min
- Cmax (in vivo; iv, 10 mg/kg): 4360 ng/mL
- MRT (in vivo; iv, 10 mg/kg): 2.95 h
- Vd (in vivo; iv, 10 mg/kg, Vss): 1.32 L
- Vd (in vivo; iv, 10 mg/kg, Vz): 3.55 L
- half-life (in vivo; iv, 10 mg/kg, t1/2): 6.16 ± 0.56 h
- bioavailability (in vivo; sc): 98.8%
- AUC(0-inf) (in vivo; sc, 10 mg/kg): 5380 ng·h/mL
- AUC(0-t) (in vivo; sc, 10 mg/kg): 4470 ng·h/mL
- bioavailability (in vivo; sc, 10 mg/kg): 91.8%
- AUC (in vivo; sc, 10 mg/kg): 5800 ± 894 ng·h/mL
- Cmax (in vivo; sc, 10 mg/kg): 468 ± 177 ng/mL
- half-life (in vivo; sc, 10 mg/kg, Ka-t1/2): 0.32 ± 0.05 h
- MRT (in vivo; sc, 10 mg/kg): 13.4 h
- Vd/F (in vivo; sc, 10 mg/kg, Vss/F): 6.07 L
- Vd/F (in vivo; sc, 10 mg/kg, Vz/F): 5.97 L
- half-life (in vivo; sc, 10 mg/kg, t1/2): 6.42 ± 1.99 h
- tmax (in vivo; sc, 10 mg/kg, tmax): 2.67 h
- effect on tumor size, small tumor group (Mat B-III tumors; 5 mg/kg s.c., tumors ~500 mg, 16 days): very effective initially in reducing tumor size
- effect on tumor size, large tumor group (Mat B-III tumors; 5 mg/kg s.c., tumors ~1000 mg): initially effective
- appearance of resected tumors (Mat B-III tumors; at completion of study): highly vascularized and firm
